Reference: US9051333B2, “6,7-dihydroimidazo [2,1-b] [1,3]oxazine bactericides” (OTSUKA PHARMACEUTICAL CO., LTD., priority 2011, dated 2015)
≈ marks a conversion by molar mass, not a printed value.

Tested on: Mycobacterium tuberculosis (M. tuberculosis kurono)
Assay: Antimicrobial Assay (Agar Plate Dilution Method), M. tuberculosis kurono
Format: cell-based
Conditions: 336 h, M. tuberculosis kurono, 7H11 agar medium, cultured at 37° C. for 14 days, read-out: Minimum Inhibitory Concentration

| Structure (SMILES) | MIC [µg/mL] |
| --- | --- |
| O=[N+]([O-])c1cn2c(n1)OC(COc1ccc(N3CCC(Oc4ccc(OC(F)(F)F)cc4)CC3)cc1)CC2 (stereo not shown) [Example 1, 2-nitro-7-{4-[4-(4-trifluoromethoxyphenoxy)piperidin-1-yl]phenoxymethyl}-6,7-dihydro-5H-imidazo[2,1-b][1,3]oxazine] | 0.024 (≈ 0.0449 µM) |
| O=[N+]([O-])c1cn2c(n1)OC(COc1ccc(N3CCN(Cc4ccc(OC(F)(F)F)cc4)CC3)cc1)CC2 (stereo not shown) [Example 3, 2-nitro-7-{4-[4-(4-trifluoromethoxybenzyl)piperazin-1-yl]phenoxymethyl}-6,7-dihydro-5H-imidazo[2,1-b][1,3]oxazine] | 0.05 (≈ 0.0937 µM) |
| O=[N+]([O-])c1cn2c(n1)OC(COc1ccc(-c3coc(COc4ccc(OC(F)(F)F)cc4)n3)cc1)CC2 (stereo not shown) [Example 53, 2-nitro-7-{4-[2-(4-trifluoromethoxyphenoxymethyl)oxazol-4-yl]phenoxymethyl}-6,7-dihydro-5H-imidazo[2,1-b][1,3]oxazine] | 0.1 (≈ 0.188 µM) |
| O=[N+]([O-])c1cn2c(n1)OC(COc1ccc(-c3csc(-c4ccc(OC(F)(F)F)cc4)n3)cc1)CC2 (stereo not shown) [Example 56, 2-nitro-7-{4-[2-(4-trifluoromethoxyphenyl)thiazol-4-yl]phenoxymethyl}-6,7-dihydro-5H-imidazo[2,1-b][1,3]oxazine] | 0.012 (≈ 0.0231 µM) |
| O=[N+]([O-])c1cn2c(n1)OC(COc1ccc(N3CCN(CCCc4ccc(Oc5ccc(OC(F)(F)F)cc5)cc4)CC3)cc1)CC2 (stereo not shown) [Example 64, 2-nitro-7-[4-(4-{3-[4-(4-trifluoromethoxyphenoxy)phenyl]propyl}piperazin-1-yl)phenoxymethyl]-6,7-dihydro-5H-imidazo[2,1-b][1,3]oxazine] | ≤ 0.006 |
| O=[N+]([O-])c1cn2c(n1)OC(COc1ccc(N3CCC(CCOc4ccc(OC(F)(F)F)cc4)CC3)nc1)CC2 (stereo not shown) [Example 79, 2-nitro-7-(6-{4-[2-(4-trifluoromethoxyphenoxy)ethyl]piperidin-1-yl}pyridin-3-yloxymethyl)-6,7-dihydro-5H-imidazo[2,1-b][1,3]oxazine] | 0.012 (≈ 0.0213 µM) |
| CN(c1ccc(OC(F)(F)F)cc1)C1CCN(c2ccc(OC[C@H]3CCn4cc([N+](=O)[O-])nc4O3)cc2)CC1 [Example 90, N-methyl-N-{1-[4-((R)-2-nitro-6,7-dihydro-5H-imidazo[2,1-b][1,3]oxazin-7-ylmethoxy)phenyl]piperidin-4-yl}-N-(4-trifluoromethoxyphenyl)amine] | 0.012 (≈ 0.0219 µM) |
| O=[N+]([O-])c1cn2c(n1)OC(COc1ccc3c(c1)CCCN3CCCOc1ccc(OC(F)(F)F)cc1)CC2 (stereo not shown) [Example 143, 6-(2-nitro-6,7-dihydro-5H-imidazo[2,1-b][1,3]oxazin-7-ylmethoxy)-1-[3-(4-trifluoromethoxyphenoxy)propyl]-1,2,3,4-tetrahydroquinoline] | 0.1 (≈ 0.182 µM) |
| O=[N+]([O-])c1cn2c(n1)OC(COc1ccc(N3CCC(Oc4ccc(OC(F)(F)F)cc4)CC3)c(F)c1)CC2 (stereo not shown) [Example 147, 7-{3-fluoro-4-[4-(4-trifluoromethoxyphenoxy)piperidin-1-yl]phenoxymethyl}-2-nitro-6,7-dihydro-5H-imidazo[2,1-b][1,3]oxazine] | 0.05 (≈ 0.0905 µM) |
| O=[N+]([O-])c1cn2c(n1)O[C@@H](COc1ccc3nc(OCc4ccc(OC(F)(F)F)cc4)ccc3c1)CC2 [Example 153, 6-((R)-2-nitro-6,7-dihydro-5H-imidazo[2,1-b][1,3]oxazin-7-ylmethoxy)-2-(4-trifluoromethoxybenzyloxy)quinoline] | 0.024 (≈ 0.0465 µM) |
| O=[N+]([O-])c1cn2c(n1)O[C@@H](COc1ccc(N3CCN(Cc4ccc(OCc5ccc(C(F)(F)F)cc5)cc4)CC3)cc1)CC2 [Example 182, (R)-2-nitro-7-(4-{4-[4-(4-trifluoromethylbenzyloxy)benzyl]piperazin-1-yl}phenoxymethyl)-6,7-dihydro-5H-imidazo[2,1-b][1,3]oxazine] | ≤ 0.0015 |
| O=[N+]([O-])c1cn2c(n1)O[C@@H](COc1ccc(N3CCN(c4ccc(OCc5ccc(OC(F)(F)F)cc5)cc4)CC3)cc1)CC2 [Example 198, (R)-2-nitro-7-(4-{4-[4-(4-trifluoromethoxybenzyloxy)phenyl]piperazin-1-yl}phenoxymethyl)-6,7-dihydro-5H-imidazo[2,1-b][1,3]oxazine] | ≤ 0.0015 |
| O=[N+]([O-])c1cn2c(n1)O[C@@H](COc1ccc(OC3CCN(Cc4ccc(OCc5ccc(OC(F)(F)F)cc5)cc4)CC3)cc1)CC2 [Example 206, (R)-2-nitro-7-(4-{1-[4-(4-trifluoromethoxybenzyloxy)benzyl]piperidin-4-yloxy}phenoxymethyl)-6,7-dihydro-5H-imidazo[2,1-b][1,3]oxazine] | ≤ 0.0015 |
| O=[N+]([O-])c1cn2c(n1)O[C@H](COc1ccc(N3CCC(Cc4ccc(OCc5ccc(C(F)(F)F)cc5)cc4)CC3)cc1)CC2 [Example 254, (S)-2-nitro-7-(4-{4-[4-(4-trifluoromethylbenzyloxy)benzyl]piperidin-1-yl}phenoxymethyl)-6,7-dihydro-5H-imidazo[2,1-b][1,3]oxazine] | 0.0008 (≈ 0.00128 µM) |
| O=[N+]([O-])c1cn2c(n1)O[C@H](COc1ccc(-c3ccc(CN4CCC(Oc5ccc(OC(F)(F)F)cc5)CC4)cc3)cc1)CC2 [Example 282, (S)-2-nitro-7-{4′-[4-(4-trifluoromethoxyphenoxy)piperidin-1-ylmethyl]biphenyl-4-yloxymethyl}-6,7-dihydro-5H-imidazo[2,1-b][1,3]oxazine] | 0.006 (≈ 0.00961 µM) |
| O=[N+]([O-])c1cn2c(n1)O[C@H](COc1ccc(N3CCN(Cc4ccc(NCc5ccc(C(F)(F)F)cc5)cc4)CC3)cc1)CC2 [Example 290, N-(4-{4-[4-((S)-2-nitro-6,7-dihydro-5H-imidazo[2,1-b][1,3]oxazin-7-ylmethoxy)phenyl]piperazin-1-ylmethyl}phenyl)-N-(4-trifluoromethylbenzyl)amine] | 0.0008 (≈ 0.00128 µM) |
| C[C@@H]1CN(c2ccc(OC[C@H]3CCn4cc([N+](=O)[O-])nc4O3)cc2)CCN1Cc1ccc(OCc2ccc(C(F)(F)F)cc2)cc1 [Example 299, (R)-7-(4-{(R)-3-methyl-4-[4-(4-trifluoromethylbenzyloxy)benzyl]piperazin-1-yl}phenoxymethyl)-2-nitro-6,7-dihydro-5H-imidazo[2,1-b][1,3]oxazine] | 0.0008 (≈ 0.00125 µM) |
| O=[N+]([O-])c1cn2c(n1)O[C@@H](COc1ccc3c(c1)CCN(Cc1ccc(OCc4ccc(C(F)(F)F)cc4)cc1)C3)CC2 [Example 304, 6-((R)-2-nitro-6,7-dihydro-5H-imidazo[2,1-b][1,3]oxazin-7-ylmethoxy)-2-[4-(4-trifluoromethylbenzyloxy)benzyl]-1,2,3,4-tetrahydroisoquinoline] | 0.012 (≈ 0.0202 µM) |
| C[C@@H]1CN(Cc2ccc(Oc3ccc(OC(F)(F)F)cc3)cc2)CCN1c1ccc(OC[C@H]2CCn3cc([N+](=O)[O-])nc3O2)cc1 [Example 335, (R)-7-(4-{(R)-2-methyl-4-[4-(4-trifluoromethoxyphenoxy)benzyl]piperazin-1-yl}phenoxymethyl)-2-nitro-6,7-dihydro-5H-imidazo[2,1-b][1,3]oxazine] | 0.0015 (≈ 0.00235 µM) |
| O=[N+]([O-])c1cn2c(n1)OC(COc1ccc(C3CCN(Cc4ccc(OC(F)(F)F)cc4)CC3)cc1)CC2 (stereo not shown) [Example 364, 2-nitro-7-{4-[1-(4-trifluoromethoxybenzyl)piperidin-4-yl]phenoxymethyl}-6,7-dihydro-5H-imidazo[2,1-b][1,3]oxazine] | 0.024 (≈ 0.0451 µM) |
| O=[N+]([O-])c1cn2c(n1)O[C@@H](COc1ccc(N3CCN(C/C=C/c4ccc(C(F)(F)F)cc4)CC3)cc1)CC2 [Example 372, (R)-2-nitro-7-(4-{4-[(E)-3-(4-trifluoromethylphenyl)allyl]piperazin-1-yl}phenoxymethyl)-6,7-dihydro-5H-imidazo[2,1-b][1,3]oxazine] | 0.006 (≈ 0.011 µM) |
| O=[N+]([O-])c1cn2c(n1)O[C@@H](COc1ccc(-c3ccc(N4CCC(O)(C(F)(F)F)CC4)cc3)cc1)CC2 [Example 379, 1-[4′-((R)-2-nitro-6,7-dihydro-5H-imidazo[2,1-b][1,3]oxazin-7-ylmethoxy)biphenyl-4-yl]-4-trifluoromethylpiperidin-4-ol] | 0.1 (≈ 0.193 µM) |
| CC1(COc2ccc(N3CCC(CCc4ccc(OC(F)(F)F)cc4)CC3)cc2)CCn2cc([N+](=O)[O-])nc2O1 (stereo not shown) [Example 382, 7-methyl-2-nitro-7-(4-{4-[2-(4-trifluoromethoxyphenyl)ethyl]piperidin-1-yl}phenoxymethyl)-6,7-dihydro-5H-imidazo[2,1-b][1,3]oxazine] | 0.012 (≈ 0.0214 µM) |
| O=[N+]([O-])c1cn2c(n1)O[C@@H](COc1ccc(N3CCC(Cc4ccc(OC(F)(F)F)cc4)CC3)cc1)CC2 [Example 383, (R)-2-nitro-7-{4-[4-(4-trifluoromethoxybenzyl)piperidin-1-yl]phenoxymethyl}-6,7-dihydro-5H-imidazo[2,1-b][1,3]oxazine] | 0.003 (≈ 0.00563 µM) |
| O=[N+]([O-])c1cn2c(n1)O[C@@H](COc1ccc(N3CCC(CCCOc4cccc(C(F)(F)F)c4)CC3)cc1)CC2 [Example 395, (R)-2-nitro-7-(4-{4-[3-(3-trifluoromethylphenoxy)propyl]piperidin-1-yl}phenoxymethyl)-6,7-dihydro-5H-imidazo[2,1-b][1,3]oxazine] | 0.003 (≈ 0.00535 µM) |
| O=[N+]([O-])c1cn2c(n1)O[C@@H](COc1ccc(N3CCC(CCCc4ccc(C(F)(F)F)cc4)CC3)cc1)CC2 [Example 400, (R)-2-nitro-7-(4-{4-[3-(4-trifluoromethylphenyl)propyl]piperidin-1-yl}phenoxymethyl)-6,7-dihydro-5H-imidazo[2,1-b][1,3]oxazine] | ≤ 0.0004 |
| CC1(COc2ccc(N3CCN(C/C=C/c4ccc(OC(F)(F)F)cc4)CC3)cc2)CCn2cc([N+](=O)[O-])nc2O1 (stereo not shown) [Example 411, 7-methyl-2-nitro-7-(4-{4-[(E)-3-(4-trifluoromethoxyphenyl)allyl]piperazin-1-yl}phenoxymethyl)-6,7-dihydro-5H-imidazo[2,1-b][1,3]oxazine] | 0.006 (≈ 0.0105 µM) |

Same assay, conditions: 336 h, read-out: Minimum Inhibitory Concentration

| Structure (SMILES) | MIC [µg/mL] |
| --- | --- |
| O=[N+]([O-])c1cn2c(n1)O[C@@H](COc1ccc(N3CCN(S(=O)(=O)C(F)(F)C(F)(F)C(F)(F)C(F)(F)F)CC3)cc1)CC2 [Example 380, (R)-2-nitro-7-{4-[4-(nonafluorobutane-1-sulfonyl)piperazin-1-yl]phenoxymethyl}-6,7-dihydro-5H-imidazo[2,1-b][1,3]oxazine] | 0.012 (≈ 0.0187 µM) |
